Type in all cases: biochemical
Test [1] addresses T1, prolyl oligopeptidase (POPMt) (Mycobacterium tuberculosis, UniProt O07178).
T1 construct: gene Rv0457c

For test [2], the target named is T1, prolyl oligopeptidase (POPMt). The test is described as follows: fluorogenic AMC substrate assay, % inhibition at […].
Test [3] has the same target. The experiment in a line: fluorogenic AMC substrate assay, % inhibition at […]. As to conditions: 1000 µM.

From PMC5293833, “Mycobacterium tuberculosis Prolyl Oligopeptidase Induces In vitro Secretion of Proinflammatory Cytokines by Peritoneal Macrophages” (Frontiers in Microbiology, 2017) come the findings set out here.

As usually defined, the inhibition is the drop in the measured response relative to a control, in per cent.

Starred links: 1 amine or outer side, 2 acyl side, 3 side chain; linkers in the order of their positions; H or OH if unused. Residues, ends and D or L forms follow the SMILES beside them. *: point of attachment. AMC = Cc1cc(=O)oc2cc(N*)ccc12; Suc = O=C(CCC(=O)[*:2])[*:1]

T1 sequence (O07178 entry or part of it): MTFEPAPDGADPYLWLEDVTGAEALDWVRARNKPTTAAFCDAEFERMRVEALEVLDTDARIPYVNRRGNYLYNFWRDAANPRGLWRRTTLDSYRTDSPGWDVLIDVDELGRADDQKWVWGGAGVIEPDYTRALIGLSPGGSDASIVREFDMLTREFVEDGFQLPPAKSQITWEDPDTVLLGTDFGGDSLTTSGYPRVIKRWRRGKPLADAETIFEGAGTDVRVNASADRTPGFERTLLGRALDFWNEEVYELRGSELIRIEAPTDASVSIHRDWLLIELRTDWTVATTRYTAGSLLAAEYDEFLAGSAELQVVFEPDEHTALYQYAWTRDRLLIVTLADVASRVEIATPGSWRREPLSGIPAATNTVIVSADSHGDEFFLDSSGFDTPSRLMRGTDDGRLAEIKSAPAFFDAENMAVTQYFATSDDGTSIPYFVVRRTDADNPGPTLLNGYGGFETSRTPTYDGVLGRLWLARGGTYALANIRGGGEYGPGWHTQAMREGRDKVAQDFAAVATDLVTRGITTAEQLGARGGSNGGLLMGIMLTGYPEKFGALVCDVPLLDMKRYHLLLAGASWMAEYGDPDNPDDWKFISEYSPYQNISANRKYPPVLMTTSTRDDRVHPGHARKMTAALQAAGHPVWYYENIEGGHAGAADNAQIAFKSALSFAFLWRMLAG

As to `Cc1cc(=O)oc2cc(NC(=O)[C@@H]3CCCN3C(=O)CNC(=O)CCC(=O)O)ccc12` [N-Suc-Gly-Pro-AMC] (Suc-Gly-Pro-{AMC}), the “Relative activity (%)” value in test [1] is 48 % relative activity.
For the compound `Cc1ccc(S(=O)(=O)N[C@@H](CCCCN)C(=O)CCl)cc1` [TLCK], in test [2], the inhibition at 100 µM worked out at 35%.
`NCCc1ccc(S(=O)(=O)F)cc1` [AEBSF]: the “Inhibition (%)” value in test [3] is 33.
Compound `Cc1ccc(S(=O)(=O)N[C@@H](Cc2ccccc2)C(=O)CCl)cc1` [TPCK] displayed an inhibition at 100 µM in test [2] of 66%.
